Results reported in ChEMBL document CHEMBL1921695, “Cembranolides from the leaves of Croton gratissimus” (J Nat Prod, 2011).
Values after ≈ are worked out from the molar mass of the structure shown.

Tested on: Plasmodium falciparum
Test: Antiplasmodial activity against chloroquine-sensitive Plasmodium falciparum D10 infected in human erythrocytes after 3 to 4 days by lactate dehydrogenase assay
Type: functional, organism-based

| IC50 [µg/mL] | Compound |
| --- | --- |
| 20.8 (≈ 65.3 µM) | C/C1=C\CC[C@](C)(O)/C=C/[C@@H](C(C)C)CCC2=C[C@@H](C1)OC2=O (relative stereo) |
| 13.5 (≈ 34.4 µM) | C=C1C[C@@H]2C=C(CC[C@](O)(C(C)C)/C=C/[C@@](C)(O)CC[C@H]1OC(C)=O)C(=O)O2 (relative stereo) |
